Measurements taken from patent publication US20260327225A1, “HETEROCYCLIC COMPOUNDS AS TRIGGERING RECEPTOR EXPRESSED ON MYELOID CELLS 2 AGONISTS AND METHODS OF USE” (VIGIL NEUROSCIENCE, INC., priority 2023, published 2026).

Biological target: T1, human TREM2 (Homo sapiens, UniProt Q9NZC2)
T1 construct: expressed in transfected cells; host or cells: HEK293T-hTREM2 cells (HEK cell line expressing human TREM2 and DAP12)
Test: TREM2 agonist potency by cellular phosphorylation of Syk (AlphaLisa) in HEK293T-hTREM2 cells expressing human TREM2 and DAP12
Format: cell-based
Conditions: HEK293 cells expressing hTREM2 and DAP12; 45 minutes at room temperature; Syk phosphorylation, AlphaLisa; read-out: hTREM2 EC50
Experimental: In vitro Measurement of Triggering Receptor Expressed on Myeloid Cells 2 activity using cellular phosphorylation of Spleen Tyrosine Kinase (“Syk”) Assays
Measurement of TREM2 agonist potency was done using a HEK cell line expressing human TREM2 and DAP12 (HEK293T-hTREM2 cells). Binding of small molecules to, and activation of, TREM2 increases the phosphorylation of Syk. The resultant levels of Syk phosphorylation are measured using a commercial AlphaLisa reagent kit. To perform the assay, HEK-hTREM2 cells were plated at 14,000 cells per well in a 384 well plate, in 25 μL of complete growth media and incubated at 37° C., 5% CO2 for 20-24 hours.
Prior to the assay, test compounds were diluted in the 384 well plates in assay buffer and allowed to equilibrate for 30 minutes. Growth media was removed from cell plates by inversion on blotting paper, and 25 μL of test articles in assay buffer was added to cells. Cells were incubated for 45 minutes at room temperature. After 45 minutes, assay buffer was removed and 10 μL of lysis buffer was added. Plates were shaken for 20 minutes at 350 RPM at room temperature. After complete lysis, AlphaLisa reagents were added to the lysate, and fluourescence intensity was measured using a Perkin Elmer Envision plate reader. Intensities were used to generate a standard curve, and % activation was calculated. Curve fitting was performed using Prism v9 software, log(agonist) vs response—variable slope (four parameters), and EC50s were calculated from the curve fit.
The results presented in Table B have been generated with the in vitro assay described above. This assay may be used to test any of the compounds described herein to assess and characterize a compound's ability to act as an agonist of TREM2.

T1 sequence (Q9NZC2 19-230): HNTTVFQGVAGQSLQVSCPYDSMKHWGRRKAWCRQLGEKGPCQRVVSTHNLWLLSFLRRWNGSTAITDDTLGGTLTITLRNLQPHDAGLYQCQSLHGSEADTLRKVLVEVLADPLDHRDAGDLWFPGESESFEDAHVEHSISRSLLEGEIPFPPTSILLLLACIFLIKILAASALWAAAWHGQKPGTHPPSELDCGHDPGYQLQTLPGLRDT
T1 sequence (O43914 22-113 partner): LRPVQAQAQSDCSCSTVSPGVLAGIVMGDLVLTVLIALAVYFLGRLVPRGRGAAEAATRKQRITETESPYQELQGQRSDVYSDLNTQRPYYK

EC50, 100 to 500 nM:
Cc1nc2nc(C3CCOC(c4cnnc(N(C)C)c4)C3)nc(C34CC(C(F)(F)F)(C3)C4)c2nc1C (racemic) [Example 130, N,N-dimethyl-5-[rac-trans-4-[6,7-dimethyl-4-[3-(trifluoromethyl)-1-bicyclo[1.1.1]pentanyl]pteridin-2-yl]tetrahydropyran-2-yl]pyridazin-3-amine]
Cc1nc2nc(N3C[C@@H](C)O[C@@H](c4cnn(C5CC5)c4)C3)nc(C34CC(C(F)(F)F)(C3)C4)c2nc1C1CN(C)C1 [Example 87, (2S,6R)-2-(1-cyclopropylpyrazol-4-yl)-6-methyl-4-[7-methyl-6-(1-methylazetidin-3-yl)-4-[3-(trifluoromethyl)-1-bicyclo[1.1.1]pentanyl]pteridin-2-yl]morpholine]
Cc1nc2nc(N3C[C@@H](C)O[C@@H](c4cnn(C5CC5)c4)C3)nc(C34C5C6C7C5C3C7C64)c2nc1C (stereo partly drawn) [Example 121, (2S,6R)-4-(4-cuban-1-yl-6,7-dimethyl-pteridin-2-yl)-2-(1-cyclopropylpyrazol-4-yl)-6-methyl-morpholine]

EC50, < 100 nM:
Cc1cc2cc(C3CC(c4nc(-c5ccc(F)cc5F)c5nc(C)c(C)nc5n4)CCO3)ccn2n1 (stereo not shown) [Example 116, 4-(2,4-difluorophenyl)-6,7-dimethyl-2-[2-(2-methylpyrazolo-[1,5-a]pyridin-5-yl)tetrahydropyran-4-yl]pteridine]
Cc1nc2c(C34CC(C(F)(F)F)(C3)C4)nc(N3C[C@@H](C)O[C@@H](c4cnn(C5CC5)c4)C3)nc2c(=O)n1C [Example 127, 6-[(2S,6R)-2-(1-cyclopropylpyrazol-4-yl)-6-methyl-morpholin-4-yl]-2,3-dimethyl-8-[3-(trifluoromethyl)-1-bicyclo[1.1.1]pentanyl]pyrimido[5,4-d]pyrimidin-4-one]
Cc1nc2nc(N3C[C@@H](C)O[C@@H](c4cnn(C5CC5)c4)C3)nc(C34CC(C(F)(F)F)(C3)C4)c2cc1C#N [Example 25, 2-[(2S,6R)-2-(1-cyclopropylpyrazol-4-yl)-6-methyl-morpholin-4-yl]-7-methyl-4-[3-(trifluoromethyl)-1-bicyclo[1.1.1]pentanyl]pyrido[2,3-d]pyrimidine-6-carbonitrile]
Cc1nc2nc(N3C[C@@H](C)O[C@@H](c4cnn(C(F)F)c4)C3)nc(C34CC(C(F)(F)F)(C3)C4)c2cc1C#N [Example 66, 2-[(2S,6R)-2-[1-(difluoromethyl)pyrazol-4-yl]-6-methyl-morpholin-4-yl]-7-methyl-4-[3-(trifluoromethyl)-1-bicyclo[1.1.1]pentanyl]pyrido[2,3-d]pyrimidine-6-carbonitrile]
Cc1nc2nc([C@H]3CCO[C@@H](c4cnn(C5CC5)c4)C3)nc(C34CC(C(F)(F)F)(C3)C4)c2cc1S(C)(=O)=O [Example 31, 2-[(2R,4S)-2-(1-cyclopropylpyrazol-4-yl)tetrahydropyran-4-yl]-7-methyl-6-methylsulfonyl-4-[3-(trifluoromethyl)-1-bicyclo[1.1.1]pentanyl]pyrido[2,3-d]pyrimidine]
COc1ncc([C@H]2C[C@@H](c3nc(C45CC(C(F)(F)F)(C4)C5)c4nc(C)c(C)nc4n3)CCO2)s1 (racemic) [Example 117, 2-methoxy-5-[rac-(2R,4S)-4-[6,7-dimethyl-4-[3-(trifluoromethyl)-1-bicyclo[1.1.1]pentanyl]pteridin-2-yl]tetrahydropyran-2-yl]thiazole]
Cc1nc2nc(N3C[C@@H](C)O[C@@H](c4cnn(C5CC5)c4)C3)nc(C34CC(C(F)(F)F)(C3)C4)c2nc1C1COC1 [Example 84, (2S,6R)-2-(1-cyclopropyl-pyrazol-4-yl)-6-methyl-4-[7-methyl-6-(oxetan-3-yl)-4-[3-(trifluoromethyl)-1-bicyclo[1.1.1]pentanyl]-pteridin-2-yl]morpholine]
